# Test results as given in paper PMC8713164, “Development of a 1,2,4-Triazole-Based Lead Tankyrase Inhibitor: Part II” (Journal of Medicinal Chemistry, 2021).
# Read-outs that look alike come from different tables or passages of the source.
# Assays:
# [1] = microsomal stability, human; type: in vitro ADME; details: microsomes
# Method: (§1) Kinetic solubility, microsomal stability, and plasma stability were determined following our internal protocol (Symeres). The Caco-2 and PPB determinations were performed by Cyprotex.
# [2] = tested on: COLO 320DM cells; assay: real-time qRT-PCR of WNT/β-catenin target genes in COLO 320DM cells; type: cell-based, human; details: dose-dependent
# Method: (§2) After 5 days, the antiproliferative effect of compound treatment was measured at 490 nm. Mean value ± standard deviation (SD) for one representative experiment of more than three repeated assays, each with six replicates, are shown. […] (b) Representative immunoblots of cytoplasmic TNKS1/2, AXIN1, AXIN2, and cytoplasmic and nuclear transcriptionally active β-catenin (non-phospho) and β-catenin. […] For (b) and (c), control = 0.001% DMSO. (c) Real-time RT-qPCR analyses of WNT/β-catenin signaling target genes (AXIN2, DKK1, NKD1, and APCDD1). Boxplots show median, first and third quartiles, and maximum and minimum whiskers for combined data from three independent experiments with three replicates each. Dotted lines depict the control mean value = 1. For (a) and (c), analysis of variance (ANOVA) tests (Holm–Sidak method, versus control) are indicated by *** (p < 0.001) and * (p < 0.05), while ANOVA on ranks tests (Dunn’s method, versus control) are indicated by ^† (p < 0.05).
# [3] = mouse peroral pharmacokinetic analysis; type: in vivo; details: mouse PO 5 mg/kg
# Method: The pharmacokinetic analyses in mice were performed according to the standard protocols of Medicilon as previously described[21] following approval by local animal experiment authorities (Shanghai, China) and in compliance with FELASA guidelines and recommendations. Three IRC mice were used per treatment group: 5 mg/kg 24 in 5% DMSO, 50% PEG400 (both Sigma-Aldrich), and 45% saline as vehicle.
# [4] = biological target: T1, PARP1 (Homo sapiens, UniProt P09874); assay: PARP1 biochemical assay; details: > under 50% inhibition
# T1 construct: made in house
# Method: (§3) All reactions were performed at ambient temperature.
# (§4) The assay conditions for the other PARP enzymes were used as previously described.[39]
# [5] = microsomal stability, dog; type: in vitro ADME; details: microsomes
# Method: as §1
# [6] = microsomal stability, mouse; type: in vitro ADME; details: microsomes
# Method: as §1
# [7] = Ames test
# Method: (§5) A safety panel (Cerep) of 44 selected targets (n = 2) including hERG Inhibition using 10 μM 24 was performed by Eurofins. Ames and CYP3A4 inhibition assays were performed by Cyprotex, and the PXR assay (CYP induction) was performed at Admescope. The PARP assays are described below.
# [8] = biological target: T2, PARP10 (Homo sapiens, UniProt Q53GL7); assay: PARP10 biochemical assay; details: >>: no inhibition detected
# T2 construct: made in house
# Method: as §3, §4
# [9] = tested on: COLO 320DM cells; assay: cells
# Method: as §2
# (§6) Antiproliferative assays using colon cancer cell lines COLO 320DM and RKO were performed as previously described.[39]
# [10] = biological target: T3, TNKS1 (Homo sapiens, UniProt O95271); assay: TNKS1 biochemical assay (unreacted NAD+ fluorescence); details: TNKS1 20 nM, 10 μM NAD+, 20 h
# T3 construct: TNKS1 (residues 1030–1317); made in house
# [11] = tested on: Cerep Safety panel 44 targets; assay: Cerep safety panel of 44 selected targets; details: 10 μM
# Method: as §5
# [12] = biological target: T4, TNKS2 (Homo sapiens, UniProt Q9H2K2); assay: TNKS2 biochemical assay (unreacted NAD+ fluorescence)
# T4 construct: TNKS2 (residues 873–1162); made in house
# T4 sequence (Q9H2K2 873-1162): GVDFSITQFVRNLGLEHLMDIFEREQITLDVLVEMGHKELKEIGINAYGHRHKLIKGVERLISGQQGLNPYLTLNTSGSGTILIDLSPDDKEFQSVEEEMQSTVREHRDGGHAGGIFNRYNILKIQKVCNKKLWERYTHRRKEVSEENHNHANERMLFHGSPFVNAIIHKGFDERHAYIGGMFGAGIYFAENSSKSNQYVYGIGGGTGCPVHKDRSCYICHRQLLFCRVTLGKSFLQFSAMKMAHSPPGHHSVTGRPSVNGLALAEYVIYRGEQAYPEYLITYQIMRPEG
# Method: New compounds were prepared in half-log dilution series, and the reactions were carried out in quadruplicates with protein and compound controls to exclude the effect of compound autofluorescence. All reactions were performed at ambient temperature. TNKS1 (20 nM) or TNKS2 (5 nM) was incubated for 20 h in assay buffer (50 mM Bis-Tris propane (BTP), pH 7.0, 0.5 mM Tris(2-carboxyethyl)phosphine (TCEP), 0.01% Triton X-100) with compound and 10 μM or 500 nM NAD^+, respectively.
# [13] = biological target: PARP1/2/3/4/10/12/14/15; assay: PARP enzyme panel, summary line of Table 5; type: biochemical; details: one bound for all eight PARPs
# Method: as §3, §4
# [14] = tested on: RKO cells; assay: MTS colorimetric cell growth assay, RKO; type: cell-based, human
# Method: as §2, §6
# [15] = biological target: T5, CYP3A4 (Homo sapiens, UniProt P08684); assay: CYP3A4 inhibition; type: in vitro ADME
# T5 construct: Cyprotex, contract assay
# Method: as §5
# [16] = mouse plasma protein binding; type: in vitro ADME; details: read-out: mouse PPB (converted)
# Method: as §1
# [17] = mouse plasma stability; type: in vitro ADME; details: read-out: mouse plasma stability t1/2
# Method: as §1
# [18] = biological target: T6, PARP4 (Homo sapiens, UniProt Q9UKK3); assay: PARP4 biochemical assay; details: > under 50% inhibition
# T6 construct: made in house
# Method: as §3, §4
# [19] = tested on: WNT/β-catenin signaling; assay: cellular (HEK293) WNT/β-catenin signaling luciferase reporter assay; type: cell-based, human; details: for IC50: Homo sapiens
# T3 sequence (O95271 1030-1317): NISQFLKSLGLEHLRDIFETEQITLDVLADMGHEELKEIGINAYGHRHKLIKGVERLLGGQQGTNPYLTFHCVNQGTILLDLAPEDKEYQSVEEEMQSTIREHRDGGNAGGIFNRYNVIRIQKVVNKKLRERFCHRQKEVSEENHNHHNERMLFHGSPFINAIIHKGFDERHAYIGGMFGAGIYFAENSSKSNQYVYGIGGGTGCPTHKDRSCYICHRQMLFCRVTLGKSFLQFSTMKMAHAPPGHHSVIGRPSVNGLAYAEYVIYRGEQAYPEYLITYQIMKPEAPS
# T2 sequence (Q53GL7 whole entry): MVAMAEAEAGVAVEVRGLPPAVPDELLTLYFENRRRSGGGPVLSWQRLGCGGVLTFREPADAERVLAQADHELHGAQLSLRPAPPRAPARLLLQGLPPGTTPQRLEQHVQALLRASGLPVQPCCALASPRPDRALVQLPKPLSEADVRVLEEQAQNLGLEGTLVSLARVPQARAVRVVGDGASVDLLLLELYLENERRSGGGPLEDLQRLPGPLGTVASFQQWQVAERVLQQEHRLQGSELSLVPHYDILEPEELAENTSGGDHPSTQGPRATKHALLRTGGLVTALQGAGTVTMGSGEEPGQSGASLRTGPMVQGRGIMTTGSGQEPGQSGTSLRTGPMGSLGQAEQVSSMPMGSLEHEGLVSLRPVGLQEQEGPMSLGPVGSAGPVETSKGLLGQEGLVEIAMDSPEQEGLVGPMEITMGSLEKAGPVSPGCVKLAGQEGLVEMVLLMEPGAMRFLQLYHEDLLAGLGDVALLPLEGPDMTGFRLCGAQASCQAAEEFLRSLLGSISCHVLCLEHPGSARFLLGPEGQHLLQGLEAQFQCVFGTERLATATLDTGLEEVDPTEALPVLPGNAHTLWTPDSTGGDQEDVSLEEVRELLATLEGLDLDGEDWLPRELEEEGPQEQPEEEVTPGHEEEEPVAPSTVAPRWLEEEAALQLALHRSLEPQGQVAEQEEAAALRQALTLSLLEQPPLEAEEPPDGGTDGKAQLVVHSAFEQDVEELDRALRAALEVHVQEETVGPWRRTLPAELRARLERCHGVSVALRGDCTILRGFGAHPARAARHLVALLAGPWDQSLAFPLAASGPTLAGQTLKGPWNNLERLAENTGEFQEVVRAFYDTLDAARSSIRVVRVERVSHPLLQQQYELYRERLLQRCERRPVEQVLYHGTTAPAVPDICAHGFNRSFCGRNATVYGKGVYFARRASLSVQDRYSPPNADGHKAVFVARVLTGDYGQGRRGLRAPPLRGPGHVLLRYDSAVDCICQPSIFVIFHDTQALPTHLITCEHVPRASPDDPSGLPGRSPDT
# T5 sequence (P08684 whole entry): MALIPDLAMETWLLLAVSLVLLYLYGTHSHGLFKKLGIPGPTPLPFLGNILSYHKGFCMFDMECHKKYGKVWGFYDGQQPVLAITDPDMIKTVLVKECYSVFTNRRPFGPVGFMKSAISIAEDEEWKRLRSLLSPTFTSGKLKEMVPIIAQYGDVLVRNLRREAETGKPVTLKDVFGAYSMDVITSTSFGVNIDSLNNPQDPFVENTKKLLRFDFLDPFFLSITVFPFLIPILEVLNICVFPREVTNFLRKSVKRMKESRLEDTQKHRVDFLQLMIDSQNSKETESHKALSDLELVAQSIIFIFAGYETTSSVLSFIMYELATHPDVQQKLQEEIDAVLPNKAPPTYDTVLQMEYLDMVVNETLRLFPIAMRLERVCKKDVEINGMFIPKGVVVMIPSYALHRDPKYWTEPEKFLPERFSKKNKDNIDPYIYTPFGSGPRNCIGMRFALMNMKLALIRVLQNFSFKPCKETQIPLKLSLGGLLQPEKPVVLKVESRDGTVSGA
# T6 sequence (Q9UKK3 whole entry): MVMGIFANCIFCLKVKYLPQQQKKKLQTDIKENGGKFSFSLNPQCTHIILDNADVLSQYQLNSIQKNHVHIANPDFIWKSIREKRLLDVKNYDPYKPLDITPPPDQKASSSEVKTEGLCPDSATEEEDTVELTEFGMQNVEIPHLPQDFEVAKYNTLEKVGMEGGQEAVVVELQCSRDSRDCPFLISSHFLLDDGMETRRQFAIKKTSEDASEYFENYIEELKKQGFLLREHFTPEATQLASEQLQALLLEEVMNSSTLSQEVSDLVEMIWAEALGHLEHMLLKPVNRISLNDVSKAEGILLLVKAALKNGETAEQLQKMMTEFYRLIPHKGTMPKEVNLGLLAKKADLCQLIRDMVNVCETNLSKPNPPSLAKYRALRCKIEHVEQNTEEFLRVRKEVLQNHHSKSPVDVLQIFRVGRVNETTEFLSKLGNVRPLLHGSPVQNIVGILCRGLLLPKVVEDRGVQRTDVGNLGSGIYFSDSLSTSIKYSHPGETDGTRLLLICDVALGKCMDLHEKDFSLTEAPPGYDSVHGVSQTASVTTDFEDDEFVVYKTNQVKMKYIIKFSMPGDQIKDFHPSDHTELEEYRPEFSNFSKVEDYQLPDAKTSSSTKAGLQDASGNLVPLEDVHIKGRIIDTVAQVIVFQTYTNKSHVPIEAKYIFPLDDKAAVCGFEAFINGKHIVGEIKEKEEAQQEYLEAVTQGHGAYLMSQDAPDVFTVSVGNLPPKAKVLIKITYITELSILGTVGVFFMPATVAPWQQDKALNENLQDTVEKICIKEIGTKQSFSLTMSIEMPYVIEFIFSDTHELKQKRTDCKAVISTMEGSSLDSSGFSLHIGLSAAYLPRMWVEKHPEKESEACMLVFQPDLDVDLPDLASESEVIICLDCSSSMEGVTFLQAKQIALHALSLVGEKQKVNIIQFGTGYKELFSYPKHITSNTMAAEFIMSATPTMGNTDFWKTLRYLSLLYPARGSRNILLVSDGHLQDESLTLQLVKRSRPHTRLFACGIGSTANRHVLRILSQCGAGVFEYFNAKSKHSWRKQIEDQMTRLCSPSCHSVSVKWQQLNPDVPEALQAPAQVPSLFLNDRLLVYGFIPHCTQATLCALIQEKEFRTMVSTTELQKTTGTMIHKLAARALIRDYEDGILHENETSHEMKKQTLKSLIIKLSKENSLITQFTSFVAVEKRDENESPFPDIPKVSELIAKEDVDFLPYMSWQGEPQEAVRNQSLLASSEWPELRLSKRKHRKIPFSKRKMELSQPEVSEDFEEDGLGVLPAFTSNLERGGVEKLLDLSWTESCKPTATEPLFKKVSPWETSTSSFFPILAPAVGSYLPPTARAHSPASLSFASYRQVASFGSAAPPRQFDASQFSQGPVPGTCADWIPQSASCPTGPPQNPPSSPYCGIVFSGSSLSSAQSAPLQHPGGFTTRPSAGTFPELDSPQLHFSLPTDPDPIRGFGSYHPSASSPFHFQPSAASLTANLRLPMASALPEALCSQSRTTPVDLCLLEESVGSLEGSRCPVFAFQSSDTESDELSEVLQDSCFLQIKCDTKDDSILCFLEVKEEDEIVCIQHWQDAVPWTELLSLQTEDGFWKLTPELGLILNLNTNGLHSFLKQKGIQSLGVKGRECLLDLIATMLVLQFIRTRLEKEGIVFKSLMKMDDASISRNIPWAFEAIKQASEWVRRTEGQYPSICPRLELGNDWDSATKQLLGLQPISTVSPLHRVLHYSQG
# T1 sequence (P09874 whole entry): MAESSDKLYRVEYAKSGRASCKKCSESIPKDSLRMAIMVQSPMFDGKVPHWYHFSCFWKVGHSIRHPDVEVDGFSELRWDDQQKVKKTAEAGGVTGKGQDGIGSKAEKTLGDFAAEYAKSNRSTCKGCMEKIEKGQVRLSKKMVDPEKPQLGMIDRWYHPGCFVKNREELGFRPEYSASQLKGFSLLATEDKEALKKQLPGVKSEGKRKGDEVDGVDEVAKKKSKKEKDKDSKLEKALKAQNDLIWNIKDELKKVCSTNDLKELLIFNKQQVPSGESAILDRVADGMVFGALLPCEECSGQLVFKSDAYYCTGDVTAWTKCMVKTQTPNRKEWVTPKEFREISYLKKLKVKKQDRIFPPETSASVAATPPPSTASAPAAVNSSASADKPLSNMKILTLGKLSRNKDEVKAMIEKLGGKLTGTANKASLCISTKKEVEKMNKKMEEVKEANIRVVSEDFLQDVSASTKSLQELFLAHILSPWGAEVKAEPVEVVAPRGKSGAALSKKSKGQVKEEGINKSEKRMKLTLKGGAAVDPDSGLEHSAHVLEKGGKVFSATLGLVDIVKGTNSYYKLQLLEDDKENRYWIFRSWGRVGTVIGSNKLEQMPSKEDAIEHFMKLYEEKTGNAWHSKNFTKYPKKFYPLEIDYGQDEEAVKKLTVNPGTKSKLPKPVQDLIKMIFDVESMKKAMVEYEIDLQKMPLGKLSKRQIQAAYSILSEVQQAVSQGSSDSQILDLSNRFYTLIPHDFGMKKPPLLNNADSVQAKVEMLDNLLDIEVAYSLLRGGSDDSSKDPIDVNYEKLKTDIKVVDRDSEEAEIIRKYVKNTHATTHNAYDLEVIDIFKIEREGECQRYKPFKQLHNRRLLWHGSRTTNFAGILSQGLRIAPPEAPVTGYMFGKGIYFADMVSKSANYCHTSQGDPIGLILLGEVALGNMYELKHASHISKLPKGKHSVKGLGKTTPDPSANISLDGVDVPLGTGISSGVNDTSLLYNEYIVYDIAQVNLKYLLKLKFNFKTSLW
compound,measurement,setting,value
"CCOc1ccc(-c2nnc([C@H]3C[C@H](NC(=O)c4cccc5nccnc45)C3)n2-c2ccccc2F)nc1 [Compound 24, N-(trans-3-(5-(5-Ethoxypyridin-2-yl)-4-(2-fluorophenyl)-4H-1,2,4-triazol-3-yl)cyclobutyl)quinoxaline-5-carboxamide]",microsomal CLint at 1 h,[1],18 µL/min/mg
same,"transcripts of WNT/β-catenin target genes AXIN2, DKK1, NKD1, APCDD1",[2],reduced levels
same,AUC(0-inf) at 24 h,"[3]; IRC, in vivo",5040 ng·h/mL
same,AUC(0-t),"[3]; IRC, in vivo",4940 ng·h/mL
same,Cmax at 24 h,"[3]; IRC, in vivo",1970 ng/mL
same,Tmax at 24 h,"[3]; IRC, in vivo",0.5 h
same,half-life at 24 h,"[3]; IRC, in vivo",1.5 h
same,MRT inf at 24 h,"[3]; IRC, in vivo, read-out: MRT 0 → ∞",2.39 h
same,CL,[3],16.5 mL/min/kg
same,Vd,[3],2.15 L/kg
same,peak value (Cmax) relative to that of 1,[3],about 60%
same,IC50,[4],> 100000 nM
same,microsomal CLint at 1 h,[5],3.8 µL/min/mg
same,microsomal CLint at 1 h,[6],22 µL/min/mg
same,Ames test,[7],nongenotoxic
same,IC50,[8],> 10000 nM
same,GI50,"[9]; Homo sapiens, COLO 320DM, 120 h, read-out: COLO 320DM cells GI50, MTS, 5 days",10.1 nM
same,COLO 320DM cells GI25,"[9]; MTS, 5 days",2.5 nM
same,GI50,"[9]; read-out: COLO 320DM cells GI50, MTS, 5 days",10 nM
same,IC50,[10],13 nM
same,TNKS1 pIC50 ± SEM,[10],7.90 ± 0.054
same,Cerep Safety panel 44 targets (overall result),[11],clean
same,"Cerep Safety panel 44 targets inhibition, all targets",[11]; n = 2,< 50%
same,IC50,[12]; IC50 TNKS2,1.8 nM
same,IC50,"[12]; IC50 TNKS2, TNKS2 5 nM, 500 nM NAD+, 20 h, quadruplicates, 95% confidence intervals in parentheses, 24: averages of multiple independent measurements",1.6 nM
same,TNKS2 pIC50 ± SEM,"[12]; TNKS2 5 nM, 500 nM NAD+, 20 h",2.0 (8.71 ± 0.069)
same,IC50,"[12]; TNKS2 pIC50 ± SEM, TNKS2 5 nM, 500 nM NAD+, 20 h",1.62 nM
same,IC50,[12]; read-out: IC50 TNKS2,2 nM
same,IC50,[13],> 10000 nM
same,effect of treatment on RKO cell viability,[14]; APC wild-type control colon cancer line,only modestly affected
same,GI50,"[14]; Homo sapiens, RKO, 120 h, read-out: RKO cells GI50",> 10000 nM
same,IC50,[15],> 25000 nM
same,fraction unbound,[16],0.0142
same,half-life,[17],> 2 h
same,IC50,[18],> 100000 nM
same,IC50,"[19]; HEK293, read-out: HEK293 reporter assay pIC50 ± SEM (converted)",0.603 nM
same,IC50,"[19]; HEK293, read-out: IC50 HEK293, HEK293 WNT/β-catenin signaling reporter assay, triplicates, 24: averages of multiple independent measurements",0.63 nM
same,efficacy in the cellular WNT/β-catenin signaling reporter assay relative to 1,[19]; times higher than 1,approximately 30 times
